{
  "source": "patent US10702538B2",
  "about": "“Ship inhibition to induce activation of natural killer cells” (THE RESEARCH FOUNDATION FOR THE STATE UNIVERSITY OF NEW YORK, priority 2014, dated 2020)",
  "key": {"[1]": {"tested_on": "immunoregulatory cells (MDSC, nTreg, neutrophils)", "assay": "Preliminary studies: immunoregulatory cells in mice after SHIP inhibitor", "format": "in vivo, wt C57BL/76 mice", "description": "K118 was administered in water, and in wt C57BL/76 mice."}, "SHIP1": {"biological_target": "T1, SHIP1 (Homo sapiens, UniProt Q92835)", "T1 sequence (Q92835 1-1189)": "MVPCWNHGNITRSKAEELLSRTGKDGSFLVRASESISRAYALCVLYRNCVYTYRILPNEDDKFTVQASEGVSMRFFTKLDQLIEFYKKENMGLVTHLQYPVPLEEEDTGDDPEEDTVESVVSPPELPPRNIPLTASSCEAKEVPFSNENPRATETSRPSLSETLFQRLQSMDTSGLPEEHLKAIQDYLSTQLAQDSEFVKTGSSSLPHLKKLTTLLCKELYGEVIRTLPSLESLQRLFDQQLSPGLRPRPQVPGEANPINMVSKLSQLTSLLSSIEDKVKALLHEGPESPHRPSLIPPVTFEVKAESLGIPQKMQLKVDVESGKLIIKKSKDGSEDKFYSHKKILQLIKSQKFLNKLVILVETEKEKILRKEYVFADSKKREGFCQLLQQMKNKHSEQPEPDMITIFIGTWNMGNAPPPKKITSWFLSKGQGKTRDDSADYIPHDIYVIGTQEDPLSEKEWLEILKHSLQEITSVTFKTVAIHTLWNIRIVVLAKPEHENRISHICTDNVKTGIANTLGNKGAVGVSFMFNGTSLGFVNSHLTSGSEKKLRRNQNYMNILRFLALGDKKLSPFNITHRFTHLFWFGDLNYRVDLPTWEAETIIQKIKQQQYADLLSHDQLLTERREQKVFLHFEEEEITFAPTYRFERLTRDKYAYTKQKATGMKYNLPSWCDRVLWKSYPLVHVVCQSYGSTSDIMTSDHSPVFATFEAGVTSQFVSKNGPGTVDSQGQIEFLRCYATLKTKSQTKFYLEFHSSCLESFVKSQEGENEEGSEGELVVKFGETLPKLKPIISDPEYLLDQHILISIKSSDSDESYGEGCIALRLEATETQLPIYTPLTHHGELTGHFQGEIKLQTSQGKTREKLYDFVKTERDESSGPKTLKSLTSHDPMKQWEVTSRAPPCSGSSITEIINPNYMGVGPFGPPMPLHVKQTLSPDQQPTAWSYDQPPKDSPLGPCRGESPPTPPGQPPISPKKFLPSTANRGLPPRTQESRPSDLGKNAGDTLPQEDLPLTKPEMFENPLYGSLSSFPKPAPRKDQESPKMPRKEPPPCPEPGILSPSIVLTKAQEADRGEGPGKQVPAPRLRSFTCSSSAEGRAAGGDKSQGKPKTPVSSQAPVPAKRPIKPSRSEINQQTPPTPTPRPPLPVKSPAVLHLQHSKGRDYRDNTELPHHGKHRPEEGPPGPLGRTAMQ", "assay": "SHIP1 inhibitor activity", "format": "biochemical", "conditions": "compared with 3AC"}, "RMA cells": {"tested_on": "RMA cells", "assay": "Survival of RMA tumor bearing mice", "format": "in vivo, C57BL/6 mice", "conditions": "1×10^5 cells; treated two consecutive days each week; vs vehicle treated groups", "description": "(§1) FIG. 2: C57BL/6 mice received either RM A cells (3AC RMA and Veh RMA groups) or RMA cells transfected with the NKG2D ligand Rae1 (3AC Rae1 and Veh Rae1 groups) and were treated two consecutive days each week starting twelve hours after receiving the tumor. […] The Kaplan-Meyer survival curve represents two independent, pooled, experiments of RMA-Rae1 tumor bearing mice treated with either vehicle (n=10/experiment) or SHIPi (n=10/experiment) or one experiment of RMA tumor bearing mice treated with either vehicle (n=10/experiment) or SHIPi (n=10/experiment).\n(§2) To determine if short term administration of SHIPi could have an in vivo functional effect we injected 5×10^5 RMA cells transected with the NKG2D ligand Rae1 into C57BL/6 mice. RMA is a mouse BL/6 derived T cell lymphoma cell line (raucher virus induced cell leukemia cell line); thus a rejection of a tumor graft in BL/6 mice is due to the presence of the Rae1 ligand or due to SHIPi treatment. Mice were treated with SHIPi (33 mg/kg) for two consecutive days and on the third day peritoneal lavage was performed to recover peritoneal contents. […] Finally, showing that there is a survival benefit for mice receiving short term SHIPi, C57BL/6 mice were injected with 1×10^5 RMA or RMA cells transected with the NKG2D ligand Rae1 and then were treated two consecutive days with SHIPi or with vehicle control. […]"}, "RMA-Rae1 cells": {"tested_on": "RMA-Rae1 cells", "assay": "In vivo rejection of GFP expressing RMA-Rae1 tumor cells, peritoneal lavage and flow cytometry", "design": "species or system C57BL/6 mice", "conditions": "listed as SHIPi", "description": "FIG. 4A; 5×10^5 GFP expressing RMA-Rae1 cells were injected into C57BL/6 mice. Mice were treated with either SHIPi or vehicle for two days. Peritoneal lavage was performed on the third day and cells collected by lavage were analyzed by flow cytometry. Flow cytometry plots indicated GFP positive cells after removal of dead cells and non-singlets via electronic gating. FIG. 4B: Graph represents poled data from two independent experiments using at least 4 SHIPi treated mice and 4 vehicle treated mice in each experiment.\nFIG. 5A: 5×10^5 GFP expressing RMA-Rae1 cells were injected into C57BL/6 once or RAG1^−/− mice. Mice were treated with either SHIPi or vehicle for two days. Peritoneal lavage was performed on the third day and cells collected by lavage were analyzed by flow cytometry. Flow cytometry plots indicated GFP positive cells after removal of dead cells and nom-singlets via electronic gating. FIG. 5B: Graph summarizes data from 5 SHIPi treated C57BL/6 mice, 5 SHIPi treated RAG1^−/− mice, 5 vehicle treated C57BL/6 mice, and 5 vehicle treated RAG1^−/− mice.\nTo determine if short term administration of SHIPi could have an in vivo functional effect we injected 5×10^5 RMA cells transected with the NKG2D ligand Rae1 into C57BL/6 mice. RMA is a mouse BL/6 derived T cell lymphoma cell line (raucher virus induced cell leukemia cell line); thus a rejection of a tumor graft in BL/6 mice is due to the presence of the Rae1 ligand or due to SHIPi treatment. Mice were treated with SHIPi (33 mg/kg) for two consecutive days and on the third day peritoneal lavage was performed to recover peritoneal contents. […] Finally, showing that there is a survival benefit for mice receiving short term SHIPi, C57BL/6 mice were injected with 1×10^5 RMA or RMA cells transected with the NKG2D ligand Rae1 and then were treated two consecutive days with SHIPi or with vehicle control. This was repeated each week such that mice received treatment or vehicle twice a week with five days rest in between each treatment. Treatment start days were spaced a week apart."}, "[2]": {"tested_on": "peritoneal NK and myeloid cells", "assay": "Peritoneal cell populations in RMA-Rae1 tumor bearing mice (flow cytometry of lavage)", "format": "in vivo, C57BL/6 mice", "conditions": "after two days of treatment, vs vehicle", "description": "FIGS. 6A-6D: SHIPi treated mice have increased peritoneal myeloid and NK cells. FIGS. 6A-D: 5×10^5 GFP expressing RMA-Rae1 cells were injected into C57BL/6 mice. Mice were treated for two days with SHIPi or vehicle alone. Peritoneal lavage was performed on the third day. Cells collected by lavage were stained with anti-NK1.1, anti-CD3ε, anti-CD19, anti-CD11b and anti-GR1 antibodies and were analyzed by flow cytometry. All populations were determined after backgating on singlets and viable cells. NK cells are NK1.1^+CD3ε^−CD19^−, T cells are CD3ε^+NK1.1^−CD19^−, B cells are CD19^+NK1.1^−CD3ε^− and myeloid cells are CD11b^+GR1^+. FIG. 6B: Graph represents pooled data from two independent experiments using at least 4 SHIPi treated mice and 4 vehicle treated mice in each experiment.\nTo determine if short term administration of SHIPi could have an in vivo functional effect we injected 5×10^5 RMA cells transected with the NKG2D ligand Rae1 into C57BL/6 mice. RMA is a mouse BL/6 derived T cell lymphoma cell line (raucher virus induced cell leukemia cell line); thus a rejection of a tumor graft in BL/6 mice is due to the presence of the Rae1 ligand or due to SHIPi treatment. Mice were treated with SHIPi (33 mg/kg) for two consecutive days and on the third day peritoneal lavage was performed to recover peritoneal contents. […]"}, "[3]": {"tested_on": "RMA cells transfected with the NKG2D ligand Rae1", "assay": "Survival of RMA-Rae1 tumor bearing mice", "format": "in vivo, C57BL/6 mice", "conditions": "1×10^5 cells; treated two consecutive days each week; vs the other three groups", "description": "as §1, §2"}, "NK cells": {"tested_on": "NK cells", "assay": "IFNγ production assay: ex vivo stimulation of NK cells from SHIPi treated mice", "format": "in vivo", "conditions": "vs vehicle treated mice; for IFNγ production by NK cells following ex vivo stimulation with anti-NK1.1, anti-NKp46 or anti-NKG2D antibody: mice treated daily 33 mg/kg for two days, 33 mg/kg", "description": "IFNγ production assay methods: Mice were treated daily with SHIPi (33 mg/kg) for two days. Mice were sacrificed by CO2 toxicity on the third day. Splenocytes were harvested and incubated for four-five hours in six well plates in the presence of Golgiplug (BD) either alone, in plates coated with either anti-NK1.1 (PK136), anti-NKp46 (2PA1.4) or anti-NKG2D (A10) antibody or in uncoated plates but with PMA ([…]) and ionomycin as a positive control. After incubation splenocytes were removed from the plates, Fc Receptors were blocked (2.4G2) and cells were stained with the Invitrogen Aqua Live/Dead cell exclusion dye. NK cells were identified by staining for either NK1.1 (PK136) or NKp46 (29A1.4) and […] (145-2C11). T cells were excluded. Cells were fixed and permeabilized (BD Cytofx/Cytoperm kit), intracellular Fc receptors were blocked (2.4G2) and stained for IFNγ (XMG1.2). Samples were run on a BD Fortessa flow cytometer and analyzed using FloJo software."}, "[4]": {"conditions": "spleen, orally at 10 mg/kg in water"}},
  "note": "Entries after “also recorded” stand apart in the source; their conditions may differ.",
  "data": [
    {"smiles": "C[C@@]12CCC[C@H]1[C@@H]1CC[C@H]3C[C@@H](N)CC[C@]3(C)[C@H]1CC2.Cl", "note": "[K118, 3β-amino-5α-androstane hydrochloride]", "values": [
      {"measurement": "Frequency of natural T regulatory cells (nTreg, CD4+CD25+FoxP3+)", "setting": "[1]; mesenteric lymph node (mLN), orally at 10 mg/kg in water", "value": "Significant increases"},
      {"measurement": "Neutrophil numbers", "setting": "[1]; orally at 10 mg/kg in water", "value": "trend for increased neutrophil numbers"},
      {"measurement": "Frequency of myeloid derived suppressor cells (MDSC) expressing Gr1 and Mac1", "setting": "[1]; [4]", "value": "significant increase"},
      {"measurement": "Frequency of natural T regulatory cells (nTreg, CD4+CD25+FoxP3+)", "setting": "[1]; [4]", "value": "Significant increases"},
      {"measurement": "Water solubility", "setting": "Water solubility", "value": "water-soluble"},
      {"measurement": "SHIP1 inhibitor activity relative to 3AC", "setting": "SHIP1", "value": "comparable SHIP1 inhibitor activity"}
    ]},
    {"smiles": "CC(C)CCC[C@@H](C)[C@H]1CC[C@H]2[C@@H]3CCC4C[C@H](N)CC[C@]4(C)[C@H]3CC[C@]12C", "note": "(stereo partly drawn) [3AC, 3 α-aminocholestane]", "values": [
      {"measurement": "Neutrophil numbers", "setting": "[1]; intraperitoneal injection", "value": "increased neutrophil numbers"},
      {"measurement": "Survival of RMA tumor bearing mice", "setting": "RMA cells", "value": "no significant survival difference"},
      {"measurement": "Tumor burden (GFP positive RMA-Rae1 cells in peritoneal lavage)", "setting": "RMA-Rae1 cells; C57BL/6 mice, 5×10^5 cells, 33 mg/kg two consecutive days, lavage on third day, vs vehicle, 33 mg/kg", "value": "significantly reduced tumor burden; also recorded: increased tumor rejection"},
      {"measurement": "Protection against RMA-Rae1 tumor in mice lacking B and T cells", "setting": "RMA-Rae1 cells; RAG1−/− mice (printed RAKG−/−), two days treatment", "value": "retained protection; also recorded: not due to B or T cells"},
      {"measurement": "Protection against RMA-Rae1 tumor after in vivo depletion of NK cells", "setting": "RMA-Rae1 cells; pretreated with anti-NK1.1 antibody PK136 200 ug 24 hours before tumor injection, vs isotype control antibody", "value": "protection is significantly reduced"},
      {"measurement": "Peritoneal myeloid cells (CD11b+GR1+)", "setting": "[2]", "value": "increased"},
      {"measurement": "Numbers of NK cells in the peritoneal cavity", "setting": "[2]; listed as SHIPi", "value": "significantly increased numbers of NK cells"},
      {"measurement": "Survival of RMA-Rae1 tumor bearing mice", "setting": "[3]", "value": "significantly increased survival"},
      {"measurement": "IFNγ production by NK cells following ex vivo stimulation with anti-NK1.1, anti-NKp46 or anti-NKG2D antibody", "setting": "NK cells", "value": "significantly increased IFNγ production; also recorded: significantly increased amounts of IFNγ"},
      {"measurement": "IFNγ production by NK cells following ex vivo stimulation with anti-NK1.1, anti-NKp46 or anti-NKG2D antibody", "setting": "NK cells; listed as SHIPi", "value": "significantly increased IFNγ"},
      {"measurement": "IFNγ production by NK cells unstimulated or stimulated with PMA and ionomycin", "setting": "NK cells; mice treated two days", "value": "do not see a significant difference"}
    ]}
  ]
}
